In patent US20250312365A1, “METHODS FOR INHIBITION OF SQUAMOUS CARCINOMA CELLS USING CERAMIDE MODULATORS” (The Trustees of Indiana University, priority 2024, published 2025):
Entries after “also recorded” stand apart in the source; their conditions may differ.

What was measured:
OECM1 cells [1] = assay: Untargeted metabolomic pathway analysis (LC/MS) in OECM1 cells; format: cell-based, human; conditions: 1 μg/ml for 6 h
Text: (§1) Based on this analysis, at least 5 different cell survival metabolomic pathways, underlined in red were diminished in OSCC (OECM1 and SCC9), but not in healthy epithelial OBA9 cells in response to PGDHC. The 5 pathways were folate metabolism, arginine and proline metabolism, glycine and serine metabolism, de novo triacylglycerol biosynthesis, and mitrochondrial electron transport chain.
The plots in FIGS. 16A and 16B display the enriched pathways identified in the analysis, with their corresponding significance levels represented on the x-axis. The significance threshold (p<0.05) is denoted by the dashed line. […] Additionally, the color of the dots represents the enrichment, which indicates the extent to which the metabolites in the pathway were clustered amongst the compounds with the most positive fold-changes (positive enrichments), the most negative fold-changes (negative enrichments), or uniformly distributed across high and low fold-change compounds (enrichment values near 0.0). […] Polar and lipid metabolites were analyzed with hydrophilic interaction chromatography (HILIC/MS) and liquid chromatography (LC/MS), respectively. Mass spectrometry analysis was completed with a mass range of 67-1500 Da with 1 scan/sec and a mass resolution of 120,000 in both positive and negative ionization mode. The MS/MS mass-spectrometry data were acquired in a data-dependent iterative fashion with a 1.3 m/z isolation window. Based upon this metabolomic analysis, phosphoglycerol dihydroceramide (PGDHC) isolated from Porphyromonas gingivalis inhibits metabolomic pathways essential for cell survival in oral squamous cell carcinoma cells (OSCC).
(§2) The Warburg effect is a metabolic phenomenon observed in many cancer cells, where the cells preferentially use glycolysis metabolism to produce energy instead of oxidative phosphorylation. The Warburg effect is a hallmark of rapid cancer cell growth. Therefore, we evaluated whether PGDHC altered Warburg effect in OSCM1 and SCC9 oral squamous cell carcinoma cells (FIG. 17A), but not healthy epithelial OBA9 cells (FIG. 17B), in vitro. Cells were stimulated with PGDHC (1 μg/ml) for 6 h and the untargeted metabolomic analysis was performed using LC/MS mass-spectrometry. Polar and lipid metabolites were analyzed with HILIC/MS and LC/MS, respectively. Mass spectrometry analysis was completed with a mass range of 67-1500 Da with 1 scan/sec and a mass resolution of 120,000 in both positive and negative ionization mode. MS/MS data were acquired in a data-dependent iterative fashion with a 1.3 m/z isolation window.
Based upon the impact of PGDHC on the Warburg effect in OSCC cells, we further analyzed the levels of cancer-survival metabolites adenosine triphosphate (ATP) and glucose in the OECM1, SCC9, and OBA9 cells described in Example 11. As shown in FIG. 18A and FIG. 18B, PGDHC altered the levels of both ATP and glucose in OECM1 and SCC9 oral squamous cell carcinoma cells, but not OBA9. The metabolites levels are presented as the relative abundance based on the data presented in FIG. 16 and FIG. 17 heat maps.

[2] = test system: healthy oral epithelial cells; assay: ASAH1 expression and dihydroceramide accumulation in healthy oral epithelial cells; format: cell-based; conditions: preliminary findings
Text: Applicant performed in vitro studies to determine the effect of PEDHC and PGDHC on the proliferation of oral cancer cells via downregulation of acid ceramidase, thereby contributing to the accumulation of intracellular ceramides. […] Furthermore, PGDHC diminished metabolites in at least five different cell survival metabolomic pathways in OSCC cells but not in healthy cells. The metabolomic pathways included folate metabolism, arginine and proline metabolism, triacylglycerol biosynthesis de novo, mitochondrial election transport chain, and glycine and serine metabolism. […] In contrast to current approaches for undermining the viability of oral squamous cell carcinoma and treating OSCC, the present disclosure relates in some aspects to methods and compositions for selectively interfering with any of the growth, viability, proliferation, migration, and metastasis of oral squamous cell carcinoma.

[3] = test system: healthy epithelial OBA9 cells; assay: Untargeted metabolomic pathway analysis (LC/MS) in healthy OBA9 cells; format: cell-based, human; conditions: 1 μg/ml for 6 h
Text: as §1
as §2, with “Mass spectrometry analysis was completed with a mass range of 67-1500 Da with 1 scan/sec and a mass resolution of 120,000 in both positive and negative ionization mode. MS/MS data were acquired in a data-dependent iterative fashion with a 1.3 m/z isolation window.” left out
Based upon the impact of PGDHC on the Warburg effect in OSCC cells, we further analyzed the levels of cancer-survival metabolites adenosine triphosphate (ATP) and glucose in the OECM1, SCC9, and OBA9 cells described in Example 11. […]

E-cadherin = assay: Western blot of E-cadherin in OECM1 cells; format: cell-based, human; conditions: 24 h of treatment
Experimental: To determine the effect of PGDHC on cell markers involved in metastasis, the protein levels of p-STAT3, EMT markers, E-cadherin, N-cadherin, and Vimentin in OECM1 cells following in vitro exposure to PGDHC were determined by Western blot assay.

[4] = test system: tongue squamous carcinoma cells (SCC4); assay: WST-1 proliferation assay in SCC4 cells; format: cell-based, human; conditions: 0.1 μg/ml and 1 μg/ml
Text: In specific examples, colorimetric assays can be used to assess cellular viability and proliferation of cell cultures, such as MTT, WST-1, and resazurin assays. See, e.g., Präbst et al., Methods Mol Biol. 2017:1601:1-17.
Various cell lines were exposed to PGDHC, including human gingival squamous carcinoma cells (OECM1), tongue squamous carcinoma cells (SCC4, SCC9), and healthy human gingival epithelial control cells (OBA9) in vitro.

ACER2 = ACER2 mRNA expression in SCC4 cells; format: cell-based, human; conditions: 0.1 or 1 μg/ml of PGDHC
Experimental: Next, the effect of PGDHC on ceramidase gene expression was determined. OECM1 and SCC4 cells were exposed to 0.1 or 1 μg/ml of PGDHC. The mRNA levels of ceramidases were then measured following PGDHC exposure. PGDHC inhibited the expression of ASAH1 and ACER2 mRNAs in OECM1 (FIG. 8). […] See, e.g., Vijayan et al., J Adv Res. 2023 Dec. 21:S2090-1232(23)00403-4, Doan et al., Oncotarget. 2017 Nov. 7;8(68):112662-112674., Lai et al., Sci Rep. 2021 May 27;11(1):11221, Liu et al., Cancer Sci. 2020 July;111(7):2259-2274., and Liu et al., Front Genet. 2023 Mar. 1:14:1148437.

OECM1 cells [5] = assay: Transwell (insert) transmigration assay, OECM1; format: cell-based, human; conditions: 1 μg/ml, compared to sham control
Experimental: A scratch wound healing assay was performed according to known methods to assess the effects of PGDHC on the migration of human oral squamous cell carcinoma cells. […] The scratch wound healing assay was validated with a transwell migration assay.

phosphoglycerol dihydroceramide [PGDHC]
Warburg effect in OECM1 cells (OECM1 cells [1]): altered | arginine and proline metabolism in OECM1 cells (OECM1 cells [1]): diminished accumulation; also recorded: inhibits | de novo triacylglycerol biosynthesis in OECM1 cells (OECM1 cells [1]): diminished accumulation; also recorded: inhibits | folate metabolism in OECM1 cells (OECM1 cells [1]): diminished accumulation; also recorded: inhibits | glycine and serine metabolism in OECM1 cells (OECM1 cells [1]): diminished accumulation; also recorded: inhibits | level of ATP in OECM1 cells (relative abundance) (OECM1 cells [1]): altered | level of glucose in OECM1 cells (relative abundance) (OECM1 cells [1]): altered | mitochondrial electron transport in OECM1 cells (OECM1 cells [1]): diminished accumulation; also recorded: inhibits | inhibition of ASAH1 expression and accumulation of dihydroceramide in healthy oral epithelial cells [2]: not observed | Warburg effect in healthy OBA9 cells [3]: no effect | protein level of E-cadherin in OECM1 cells (E-cadherin): little to no detectable effect | proliferation of SCC4 cells [4]: did not have an observable effect | expression of ACER2 mRNA in SCC4 cells (ACER2): downregulated | number of transmigrated OECM1 cells (OECM1 cells [5]): significantly reduced
